Values after ≈ are worked out from the molar mass of the structure shown.

In assay [1] the test system is Human immunodeficiency virus. The assay can be described thus: Antiviral activity against HIV at 0.64 ug/well. The assay is classed as functional.
Assay [2] concerns P388. The assay can be described thus: Antitumor activity against mouse P388 cells. The assay is classed as functional, cell-based.
Assay [3] in a line: Antitumor activity against mouse SCHABEL cells. Type of assay: functional, cell-based.
The test system of assay [4] is A549. The assay can be described thus: Antitumor activity against human A549 cells. The assay is classed as functional, cell-based.
Assay [5] has as its system HT-29. The assay can be described thus: Antitumor activity against human HT-29 cells. The assay is classed as functional, cell-based.
The test system of assay [6] is SK-MEL-28. In words: Antitumor activity against human SK-MEL-28 cells. The assay is classed as functional, cell-based.

`C=C(CC[C@@H](C)[C@H]1CC[C@H]2c3ccc4c(c3CC[C@]12C)CC[C@H](O)C4)C(C)C` [PHYCOMYSTEROL A] returned an Activity in assay [1] of 64%. Besides, the IC50 in assay [2] stood at 5 µg/mL (≈ 13.1 µM); in assay [3], 5 µg/mL (≈ 13.1 µM); in assay [4], 10 µg/mL (≈ 26.3 µM); in assay [5] it was 10 µg/mL (≈ 26.3 µM); in assay [6], 10 µg/mL (≈ 26.3 µM).

One may read the IC50 as the concentration that gives 50% inhibition. Read a low IC50 as higher potency.

For the origin of these results see ChEMBL document CHEMBL1151322, “Phycomysterols and other sterols from the fungus Phycomyces blakesleeanus” (J Nat Prod, 1998).
